From patent US20060100431A1, “Biologically active compounds” (Amura Therapeutics Limited, priority 2002, published 2006)
pKi: −log10 of the molar value.

Experiments:
Type in all cases: biochemical
Wild-type cruzipain = Wild-type cruzipain (Trypanosoma cruzi, UniProt P25779); assay: Trypanosoma cruzi cruzipain peptidase activity assay (Ki); details: read-out: Ki, inhibitors of cruzain and cruzipains
How it was run: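 Native cruzipain from T. cruzi Dm28 epimastigotes, 2.5 nM, in 100 mM sodium phosphate pH 6.75 with 1 mM EDTA and 10 mM L-cysteine, 25 °C, DMSO <1%. Rates taken from continuous fluorogenic substrate read; Ki by regression assuming reversible pure-competitive inhibition.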

Bovine cathepsin S = molecular target: T1, Bovine cathepsin S (Bos taurus, UniProt P25326); assay: Cathepsin S peptidase activity assay, bovine enzyme (Ki); details: species of cathepsin S not given; read-out: Ki, inhibitors of cathepsin S
T1 construct: purchased CN Biosciences
How it was run: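 Bovine cathepsin S activity followed by fluorescence increase from substrate conversion to product over time, enzyme added to start the reaction, at 25±1° C. Buffer 10 mM bis-tris-propane pH 6.5 with 1 mM EDTA, 5 mM 2-mercaptoethanol, 1 mM CaCl2; DMSO kept below 1% (vol./vol.).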

CPB2.8ΔCTE = molecular target: T2, CPB2.8ΔCTE (Leishmania mexicana, UniProt P36400); assay: Leishmania mexicana cysteine protease B (CPB) peptidase activity assay (Ki); details: Ki, inhibitors of Leismania mexicana CPB protease
T2 construct: Wild-type recombinant CPB without the C-terminal extention (i.e. CPB2.8ΔCTE); Dr. Jeremy Mottram (Wellcome Centre for Molecular Parasitology, University of Glasgow)
How it was run: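 Recombinant CPB2.8ΔCTE (0.25 nM) was assayed in 100 mM sodium acetate pH 5.5 with 1 mM EDTA, 200 mM NaCl and 10 mM DTT at 25 °C, DMSO <1%, enzyme added to start. Rates were taken from continuous fluorescence slopes; apparent Ki was fitted assuming reversible, pure-competitive inhibition.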

human cathepsin B = molecular target: T3, human cathepsin B (Homo sapiens, UniProt P07858); assay: Cathepsin B peptidase activity assay (Ki); details: read-out: Ki, inhibitors of cathepsin B
T3 construct: purchased CN Biosciences
How it was run: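 Buffer: 10 mM bis-tris-propane pH 6.5, 1 mM EDTA, 5 mM 2-mercaptoethanol, 1 mM CaCl2; DMSO <1%. Ki assumed reversible, pure-competitive, from Ki^app=Ki(1+[So]/KM^app) by non-linear regression.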

Measured: pKi

T1 sequence (P25326 115-331): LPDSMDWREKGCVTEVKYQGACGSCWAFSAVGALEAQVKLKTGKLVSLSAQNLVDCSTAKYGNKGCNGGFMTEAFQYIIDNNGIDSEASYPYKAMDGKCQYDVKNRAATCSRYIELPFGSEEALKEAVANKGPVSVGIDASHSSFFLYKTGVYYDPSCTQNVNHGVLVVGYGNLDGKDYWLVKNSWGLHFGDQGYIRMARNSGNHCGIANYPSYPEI
T2 sequence (P36400 126-343, stated change not applied): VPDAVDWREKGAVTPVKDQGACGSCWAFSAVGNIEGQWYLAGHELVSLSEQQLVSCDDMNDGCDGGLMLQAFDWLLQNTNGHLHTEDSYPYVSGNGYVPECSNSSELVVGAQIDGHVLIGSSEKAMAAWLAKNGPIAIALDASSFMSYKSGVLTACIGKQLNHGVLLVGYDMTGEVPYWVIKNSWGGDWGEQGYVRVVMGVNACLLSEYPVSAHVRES
Wild-type cruzipain, sequence (P25779 whole entry): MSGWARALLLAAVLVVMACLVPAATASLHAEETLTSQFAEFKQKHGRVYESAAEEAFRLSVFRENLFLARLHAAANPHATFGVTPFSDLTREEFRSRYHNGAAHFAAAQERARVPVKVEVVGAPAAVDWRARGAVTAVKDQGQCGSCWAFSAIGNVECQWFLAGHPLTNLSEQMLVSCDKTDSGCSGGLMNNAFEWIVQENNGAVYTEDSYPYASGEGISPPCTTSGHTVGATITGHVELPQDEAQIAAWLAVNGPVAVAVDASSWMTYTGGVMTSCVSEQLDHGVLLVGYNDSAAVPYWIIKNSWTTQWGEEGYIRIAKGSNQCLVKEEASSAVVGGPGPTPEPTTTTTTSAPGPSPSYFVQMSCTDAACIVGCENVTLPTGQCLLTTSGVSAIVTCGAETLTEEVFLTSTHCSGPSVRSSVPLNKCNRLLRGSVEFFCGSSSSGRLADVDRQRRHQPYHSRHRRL

CC(C)C[C@H](NC(=O)c1ccc(Oc2ccccc2)cc1)C(=O)N1CC[C@@H]2[C@H]1C(=O)CN2C(=O)c1ccccc1 [Example 39, (3aR,6aS)-N-[(1S)-1-(4-Benzoyl-6-oxo-hexahydro-pyrrolo[3,2-b]pyrrole-1-carbonyl)-3-methyl-butyl]-4-phenoxy-benzamide]
> 5.30: all assays above

Cc1cccc(C[C@H](NC(=O)C(c2ccccc2)c2ccccc2)C(=O)N2CC[C@@H]3[C@H]2C(=O)CN3C(=O)c2csc3ccccc23)c1 [Example 314]
> 5.30: all assays above

O=C(N[C@@H](Cc1cccc(F)c1)C(=O)N1CC[C@@H]2[C@H]1C(=O)CN2C(=O)c1csc2ccccc12)C(c1ccccc1)c1ccccc1 [Example 315, (3aR,6aS)-N-[(1S)-2-[4-(Benzo[b]thiophene-3-carbonyl)-6-oxo-hexahydro-pyrrolo[3,2-b]pyrrole-1-yl]-1-(3-fluoro-benzyl)-2-oxo-ethyl]-2,2-diphenyl-acetamide]
> 5.30: all assays above

O=C(N[C@@H](Cc1cc(F)cc(F)c1)C(=O)N1CC[C@@H]2[C@H]1C(=O)CN2C(=O)c1csc2ccccc12)C(c1ccccc1)c1ccccc1 [Example 316, (3aR,6aS)-N-[(1S)-2-[4-(Benzo[b]thiophene-3-carbonyl)-6-oxo-hexahydro-pyrrolo[3,2-b]pyrrole-1-yl]-1-(3,5-difluoro-benzyl)-2-oxo-ethyl]-2,2-diphenyl-acetamide]
> 5.30: all assays above

O=C(N[C@@H](Cc1ccc(O)cc1)C(=O)N1CC[C@@H]2[C@H]1C(=O)CN2C(=O)c1csc2ccccc12)c1cccc(Br)c1 [Example 323, (3aR,6aS)-N-[(1S)-2-[4-(Benzo[b]thiophene-3-carbonyl)-6-oxo-hexahydro-pyrrolo[3,2-b]pyrrole-1-yl]-1-(4-hydroxy-benzyl)-2-oxo-ethyl]-3-bromo-benzamide]
> 5.30: Wild-type cruzipain | Bovine cathepsin S | human cathepsin B

O=C(N[C@@H](Cc1ccc(O)cc1)C(=O)N1CC[C@@H]2[C@H]1C(=O)CN2C(=O)c1csc2ccccc12)C(c1ccccc1)c1ccccc1 [Example 329, (3aR,6aS)-N-[(1S)-2-[4-(Benzo[b]thiophene-3-carbonyl)-6-oxo-hexahydro-pyrrolo[3,2-b]pyrrole-1-yl]-1-(4-hydroxy-benzyl)-2-oxo-ethyl]-2,2-diphenyl-acetamide]
> 5.30: all assays above

O=C(N[C@@H](Cc1ccc(O)cc1)C(=O)N1CC[C@@H]2[C@H]1C(=O)CN2C(=O)c1ccccc1)C(c1ccccc1)c1ccccc1 [Example 330, (3aR,6aS)-N-[(1S)-2-(4-Benzoyl-6-oxo-hexahydro-pyrrolo[3,2-b]pyrrol-1-yl)-1-(4-hydroxy-benzyl)-2-oxo-ethyl]-2,2-diphenyl-acetamide]
> 5.30: all assays above
